Test results from US11712438B2, “Phenyl derivatives as PGE2 receptor modulators” (IDORSIA PHARMACEUTICALS LTD, priority 2017, dated 2023).

Assays:
PTGER2 (EP2) = PTGER2 (EP2) (Homo sapiens, UniProt P43116); experiment: cell-based
Excerpt: (§1) The assay is using the PathHunter™ HEK 293 PTGER2 and PTGER4 b-arrestin cell lines from DiscoverX. The system is based on the Enzyme Fragment Complementation Technology. Two complementing fragments of the b-galactosidase enzyme are expressed within stably transfected cells. The larger portion of b-gal, termed EA for Enzyme Acceptor, is fused to the C-terminus of b-arrestin 2. The smaller fragment, termed ProLink™ tag, is fused to PTGER2 (EP2) or PTRGER4 (EP4) at the C-terminus. Upon activation, b-arrestin is recruited which forces the interaction of ProLink and EA, allowing complementation of the two fragments of b-gal and the formation of a functional enzyme which is capable of hydrolysing the substrate and generating a chemiluminescent signal.
The HEK 293 PTGER2 b-arrestin cells (DiscoverX 93-021-4C1) are detached from culture dishes with a cell dissociation buffer (Invitrogen, 13151-014), and collected in growing medium (GM: DMEM+Glutamax-I (Invitrogen 32430)/10% FCS, 1% Penicilin/streptomycin). 5000 cells per well of a 384 well plate (white with white bottom Greiner 781080) are seeded in 20 ul per well of GM. Plate is incubated at 37° C., 5% CO2 for 24 hours.
(§2) Stock solutions of test compounds are made at a concentration of 10 mM in DMSO, and serially diluted in DMSO to concentrations required for inhibition dose response curves (tested concentration range 10 μM-2 nM or 1 μM-0.2 nM).
PGE2 (Cayman 14010, stock solution: 10 mM in DMSO) is used as agonist at 5 μM final concentration, corresponding to EC80.
Five microliters of diluted compounds are transferred into the assay plate. Plate is pre-incubated 15 minutes at 37° C. Then five microliters of PGE2 (final conc. 5 μM) are transferred into the assay plate. Plate is incubated 120 minutes at 37° C.
Twelve μl of reagent are transferred to the assay plate and incubate for 1 hour at room temperature in the dark. Luminescence counts are read on a BMG Fluostar Optima reader according to manufacturer's instructions.
(§3) For each compound concentration calculate of the percentage of activity compared to DMSO control value as average±STDEV. (each concentration is measured in duplicate)
(§4) When compounds were measured multiple times, mean values are given.

PTRGER4 (EP4) = PTRGER4 (EP4) (Homo sapiens, UniProt P35408); experiment: cell-based;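 also: assay plate preincubated 15 min at 37 °C, after which PGE2 was added at 20 nM final and incubation continued 120 min at 37 °C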
PTRGER4 (EP4), sequence (P35408 whole entry): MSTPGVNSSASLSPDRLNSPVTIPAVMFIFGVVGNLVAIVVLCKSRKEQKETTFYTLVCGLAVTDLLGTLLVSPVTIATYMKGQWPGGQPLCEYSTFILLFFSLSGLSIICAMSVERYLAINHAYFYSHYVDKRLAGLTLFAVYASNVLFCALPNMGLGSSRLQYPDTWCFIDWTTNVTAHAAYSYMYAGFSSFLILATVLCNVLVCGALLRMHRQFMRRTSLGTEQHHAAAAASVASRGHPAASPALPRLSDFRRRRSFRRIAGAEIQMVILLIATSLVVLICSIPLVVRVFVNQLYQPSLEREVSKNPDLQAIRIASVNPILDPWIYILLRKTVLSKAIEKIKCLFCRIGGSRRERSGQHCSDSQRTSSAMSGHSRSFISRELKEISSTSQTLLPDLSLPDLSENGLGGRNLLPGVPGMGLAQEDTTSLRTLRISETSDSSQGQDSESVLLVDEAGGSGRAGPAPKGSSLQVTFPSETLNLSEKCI
Excerpt: as §1
The HEK 293 PTGER4 b-arrestin cells (DiscoverX 93-030-4C1) are detached from culture dishes with a cell dissociation buffer (Invitrogen, 13151-014), and collected in growing medium (GM: DMEM+Glutamax-I (Invitrogen 32430)/10% FCS, 1% Penicilin/streptomycin). 5000 cells per well of a 384 well plate (white with white bottom Greiner 781080) are seeded in 20 ul per well of GM. Plate is incubated at 37° C., 5% CO2 for 24 hours.
as §2
PGE2 (Cayman 14010, stock solution: 100 uM in DMSO) is used as agonist at 20 nM final concentration, corresponding to EC80.
Five microliters of diluted compounds are transferred into the assay plate. Plate is pre-incubated 15 minutes at 37° C. Then five microliters of PGE2 (final conc. 20 nM) are transferred into the assay plate. Plate is incubated 120 minutes at 37° C.
Twelve μl of reagent are transferred to the assay plate and incubate for 1 hour at room temperature in the dark. Luminescence counts are read on a BMG Fluostar Optima reader according to manufacturers instructions.
as §3, §4

PTGER2 (EP2), sequence (P43116 whole entry): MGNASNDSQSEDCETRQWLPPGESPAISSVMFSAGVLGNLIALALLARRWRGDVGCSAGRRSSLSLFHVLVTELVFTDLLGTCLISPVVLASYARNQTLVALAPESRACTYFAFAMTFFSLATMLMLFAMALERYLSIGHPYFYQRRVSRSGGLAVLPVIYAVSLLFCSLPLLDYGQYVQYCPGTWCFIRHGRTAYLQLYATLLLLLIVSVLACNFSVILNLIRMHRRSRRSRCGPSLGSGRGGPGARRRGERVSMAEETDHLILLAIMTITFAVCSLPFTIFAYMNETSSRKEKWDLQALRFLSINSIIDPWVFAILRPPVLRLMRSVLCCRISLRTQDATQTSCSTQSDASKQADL

IC50 (PTGER2 (EP2)) [nM]	IC50 (PTRGER4 (EP4)) [nM]	SMILES
662	152	COc1cc(C(F)(F)F)cc(F)c1CCNc1cc(-c2ccc(C(=O)O)c(SC)c2)ncn1 [Example 230, 4-{6-[2-(2-Fluoro-6-methoxy-4-trifluoromethyl-phenyl)-ethylamino]-pyrimidin-4-yl}-2-methylsulfanyl-benzoic acid]
222	398	CCOc1cc(-c2cc(NCCc3c(F)cccc3F)ncn2)ccc1-c1noc(=O)[nH]1 [Example 233, 3-(4-(64(2,6-Difluorophenethypamino)pyrimidin-4-yl)-2-ethoxyphenyl)-[1,2,4]oxadiazol-5(4H)-one]
265	351	O=C(O)Cc1ccc(-c2cc(NCCc3c(F)cc(Br)cc3F)ncn2)cc1OC(F)(F)F [Example 236, (4-{6-[2-(4-Bromo-2,6-difluoro-phenyl)-ethylamino]-pyrimidin-4-yl}-2-trifluoromethoxy-phenyl)-acetic acid]
251	438	O=CNc1ccc(-c2cc(NCCc3c(F)cc(Br)cc3F)ncn2)cc1 [Example 238, N-(4-{6-[2-(4-Bromo-2,6-difluoro-phenyl)-ethylamino]-pyrimidin-4-yl}-phenyl)-formamide]
300	387	CCOc1cc(-c2cc(NCCc3c(F)cc(Br)cc3F)ncn2)ccc1C(=O)C(=O)O [Example 239, (4-{6-[2-(4-Bromo-2,6-difluoro-phenyl)-ethylamino]-pyrimidin-4-yl}-2-ethoxy-phenyl)-oxo-acetic acid]
41	61	O=c1c(O)c(-c2ccc(-c3cc(NCCc4c(F)cc(Br)cc4F)ncn3)cc2)c1=O [Example 243, 3-(4-{6-[2-(4-Bromo-2,6-difluoro-phenyl)-ethylamino]-pyrimidin-4-yl}-phenyl)-4-hydroxy-cyclobut-3-ene-1,2-dione]
479	277	COC(=O)c1ccc(-c2cc(NCCc3c(F)cc(Br)cc3F)ncn2)cc1SC [Example 246, 4-{6-[2-(4-Bromo-2,6-difluoro-phenyl)-ethylamino]-pyrimidin-4-yl}-2-methylsulfanyl-benzoic acid methyl ester]
799	278	CCOC(=O)CCc1sc(-c2cc(NCCc3c(F)cc(Br)cc3F)ncn2)cc1OCC [Example 247, 3-(5-{6-[2-(4-Bromo-2,6-difluoro-phenyl)-ethylamino]-pyrimidin-4-yl}-3-ethoxy-thiophen-2yl)-propionic acid ethyl ester]
110	467	CCc1cc(-c2cc(NCCc3c(F)cc(Br)cc3F)ncn2)ccc1C(=O)O [Example 249, 4-{6-[2-(4-Bromo-2,6-difluoro-phenyl)-ethylamino]-pyrimidin-4-yl}-2-ethyl-benzoic acid]
254	831	CC(C)Oc1cc(-c2cc(NCCc3c(F)cc(Br)cc3F)ncn2)ccc1C(=O)O [Example 251, 4-{6-[2-(4-Bromo-2,6-difluoro-phenyl)-ethylamino]-pyrimidin-4-yl}-2-isopropoxy-benzoic acid]
191	170	CCc1cc(-c2cc(NCCc3c(F)cc(Br)cc3F)ncn2)cc(Cl)c1CC(=O)O [Example 253, (4-{6-[2-(4-Bromo-2,6-difluoro-phenyl)-ethylamino]-pyrimidin-4-yl}-2-chloro-6-ethyl-phenyl)-acetic acid]
753	880	Cc1cc(-c2cc(NCCc3c(F)cc(Br)cc3F)ncn2)ccc1CC(=O)O [Example 254, (4-{6-[2-(4-Bromo-2,6-difluoro-phenyl)-ethylamino]-pyrimidin-4-yl}-2-methyl-phenyl)-acetic acid]
344	283	Cc1cc(-c2cc(NCCc3c(F)cc(Br)cc3F)ncn2)cc(C)c1CC(=O)O [Example 255, (4-{6-[2-(4-Bromo-2,6-difluoro-phenyl)-ethylamino]-pyrimidin-4-yl}-2,6-dimethyl-phenyl)-acetic acid]
574	584	Cc1cc(-c2cc(NCCc3c(F)cc(Br)cc3F)ncn2)cc(F)c1CC(=O)O [Example 256, (4-{6-[2-(4-Bromo-2,6-difluoro-phenyl)-ethylamino]-pyrimidin-4-yl}-2-fluoro-6-methyl-phenyl)-acetic acid]
212	239	CCc1cc(-c2cc(NCCc3c(F)cc(Br)cc3F)ncn2)cc(C)c1CC(=O)O [Example 257, (4-{6-[2-(4-Bromo-2,6-difluoro-phenyl)-ethylamino]-pyrimidin-4-yl}-2-ethyl-6-methyl-phenyl)-acetic acid]
77	174	Fc1cc(Br)cc(F)c1CCNc1cc(-c2ccc3[nH]ccc3c2)ncn1 [Example 258, [2-(4-Bromo-2,6-difluoro-phenyl)-ethyl]-[6-(1H-indol-5yl)-pyrimidin-4-yl]amine]
204	755	O=C(O)Cc1ccc(-c2cc(NCCc3c(F)cc(Br)cc3F)ncn2)cc1OC1CC1 [Example 260, (4-{6-[2-(4-Bromo-2,6-difluoro-phenyl)-ethylamino]-pyrimidin-4-yl}-2-cyclopropoxy-phenyl)-acetic acid]

IC50 (PTGER2 (EP2)) [nM]	IC50 (PTRGER4 (EP4)) [nM]	SMILES
88	149	CN1C(=O)NCc2ccc(-c3cc(NCCc4c(F)cc(Br)cc4F)ncn3)cc21 [Example 262, 7-{6-[2-(4-Bromo-2,6-difluoro-phenyl)-ethylamino]-pyrimidin-4-yl}-1-methyl-3,4-dihydro-1H-quinazolin-2-one]
372	465	Cc1cc(-c2cc(NCCc3c(F)cc(Br)cc3F)ncn2)cc(Cl)c1CC(=O)O [Example 264, (4-{6-[2-(4-Bromo-2,6-difluoro-phenyl)-ethylamino]-pyrimidin-4-yl}-2-chloro-6-methyl-phenyl)-acetic acid]
242	452	NC(=O)Nc1ccc(-c2cc(NCCc3c(F)cc(Br)cc3F)ncn2)cc1 [Example 265, (4-{6-[2-(4-Bromo-2,6-difluoro-phenyl)-ethylamino]-pyrimidin-4-yl}-phenyl)-urea]
65	368	O=c1[nH]c2ccc(-c3cc(NCCc4c(F)cc(Br)cc4F)ncn3)cc2o1 [Example 266, 6-{6-[2-(4-Bromo-2,6-difluoro-phenyl)-ethylamino]-pyrimidin-4-yl}-3H-benzooxazol-2-one]
70	183	Fc1cc(Br)cc(F)c1CCNc1cc(-c2ccc3[nH]ncc3c2)ncn1 [Example 267, [2-(4-Bromo-2,6-difluoro-phenyl)-ethyl]-[6-(1H-indazol-5-yl)-pyrimidin-4-yl]amine]
258	768	CCn1cc(-c2cc(NCCc3c(F)cc(Br)cc3F)ncn2)cc1C(=O)O [Example 269, 4-{6-[2-(4-Bromo-2,6-difluoro-phenyl)-ethylamino]-pyrimidin-4-yl}-1-ethyl-1H-pyrrole-2-carboxylic acid]
316	700	CCCn1cc(-c2cc(NCCc3c(F)cc(Br)cc3F)ncn2)cc1C(=O)O [Example 270, 4-{6-[2-(4-Bromo-2,6-difluoro-phenyl)-ethylamino]-pyrimidin-4-yl}-1-propyl-1H-pyrrole-2-carboxylic acid]
174	426	O=C(O)c1coc2cc(-c3cc(NCCc4c(F)cc(Br)cc4F)ncn3)ccc12 [Example 272, 6-{6-[2-(4-Bromo-2,6-difluoro-phenyl)-ethylamino]-pyrimidin-4-yl}-benzofuran-3-carboxylic acid]
160	646	CCOc1c(C(=O)O)ccc(-c2cc(NCCc3c(F)cc(Br)cc3F)ncn2)c1F [Example 274, 4-{6-[2-(4-Bromo-2,6-difluoro-phenyl)-ethylamino]-pyrimidin-4-yl}-2-ethoxy-3-fluoro-benzoic acid]
295	199	CCCc1cc(-c2cc(NCCc3c(F)cc(Br)cc3F)ncn2)ccc1Cc1noc(=O)[nH]1 [Example 284, 3-(4-{6-[2-(4-Bromo-2,6-difluoro-phenyl)-ethylamino]-pyrimidin-4-yl}-2-propyl-benzyl)-[1,2,4]oxadiazol-5(4H)-one]
48	28	CCOc1cc(-c2cc(NCCc3c(F)cc(Br)cc3F)ncn2)ccc1-c1noc(=S)[nH]1 [Example 290, 3-(4-{6-[2-(4-Bromo-2,6-difluoro-phenyl)-ethylamino]-pyrimidin-4-yl}-2-ethoxy-phenyl)-[1,2,4]oxadiazole-5(4H)-thione]
100	893	COc1cc(C(N)=O)ccc1-c1cc(NCCc2c(F)cc(Br)cc2F)ncn1 [Example 292, 4-{6-[2-(4-Bromo-2,6-difluoro-phenyl)-ethylamino]-pyrimidin-4-yl}-3-methoxy-benzamide]
21	236	CCOc1cc(-c2cc(NCCc3c(F)cc(Br)cc3F)ncn2)ccc1C(N)=O [Example 297, 4-{6-[2-(4-Bromo-2,6-difluoro-phenyl)-ethylamino]-pyrimidin-4-yl}-2-ethoxy-benzamide]
128	301	CCOc1cc(-c2cc(NCCc3c(F)cc(Br)cc3F)ncn2)ccc1C(=O)NC [Example 298, 4-{6-[2-(4-Bromo-2,6-difluoro-phenyl)-ethylamino]-pyrimidin-4-yl}-2-ethoxy-N-methyl-benzamide]
145	255	CCNC(=O)c1ccc(-c2cc(NCCc3c(F)cc(Br)cc3F)ncn2)cc1OCC [Example 299, 4-{6-[2-(4-Bromo-2,6-difluoro-phenyl)-ethylamino]-pyrimidin-4-yl}-2-ethoxy-N-ethyl-benzamide]
118	640	CCOc1cc(-c2cc(NCCc3c(F)cc(Br)cc3F)ncn2)ccc1C(=O)NCCOC [Example 301, 4-{6-[2-(4-Bromo-2,6-difluoro-phenyl)-ethylamino]-pyrimidin-4-yl}-2-ethoxy-N-(2-methoxy-ethyl)-benzamide]
121	565	CCOc1cc(-c2cc(NCCc3c(F)cc(Br)cc3F)ncn2)ccc1C(=O)NCC(C)(C)O [Example 302, 4-{6-[2-(4-Bromo-2,6-difluoro-phenyl)-ethylamino]-pyrimidin-4-yl}-2-ethoxy-N-(2-hydroxy-2-methyl-propyl)-benzamide]
